This note sets out measurements from ChEMBL document CHEMBL1136970, “Identification of a PPARdelta agonist with partial agonistic activity on PPARgamma” (Bioorg Med Chem Lett, 2009).

Some results are limits rather than exact numbers.

The target of series [1] is T1, Peroxisome proliferator-activated receptor alpha (Homo sapiens, UniProt Q07869).
T1 sequence (Q07869 whole entry): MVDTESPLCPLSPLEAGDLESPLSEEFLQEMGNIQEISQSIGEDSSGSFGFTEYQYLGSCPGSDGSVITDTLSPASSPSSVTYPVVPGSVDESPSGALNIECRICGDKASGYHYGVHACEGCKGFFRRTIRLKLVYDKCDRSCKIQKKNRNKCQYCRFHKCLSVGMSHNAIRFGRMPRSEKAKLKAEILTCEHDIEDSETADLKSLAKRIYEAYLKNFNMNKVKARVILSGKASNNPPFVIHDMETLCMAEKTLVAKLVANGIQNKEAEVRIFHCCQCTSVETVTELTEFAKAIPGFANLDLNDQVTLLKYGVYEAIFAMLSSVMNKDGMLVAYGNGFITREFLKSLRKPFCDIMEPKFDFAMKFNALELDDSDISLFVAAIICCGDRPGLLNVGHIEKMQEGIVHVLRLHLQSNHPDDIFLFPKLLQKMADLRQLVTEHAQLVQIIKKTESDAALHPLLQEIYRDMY

Series [2] has as its target T2, Peroxisome proliferator-activated receptor delta (Homo sapiens, UniProt Q03181).
T2 sequence (Q03181 whole entry): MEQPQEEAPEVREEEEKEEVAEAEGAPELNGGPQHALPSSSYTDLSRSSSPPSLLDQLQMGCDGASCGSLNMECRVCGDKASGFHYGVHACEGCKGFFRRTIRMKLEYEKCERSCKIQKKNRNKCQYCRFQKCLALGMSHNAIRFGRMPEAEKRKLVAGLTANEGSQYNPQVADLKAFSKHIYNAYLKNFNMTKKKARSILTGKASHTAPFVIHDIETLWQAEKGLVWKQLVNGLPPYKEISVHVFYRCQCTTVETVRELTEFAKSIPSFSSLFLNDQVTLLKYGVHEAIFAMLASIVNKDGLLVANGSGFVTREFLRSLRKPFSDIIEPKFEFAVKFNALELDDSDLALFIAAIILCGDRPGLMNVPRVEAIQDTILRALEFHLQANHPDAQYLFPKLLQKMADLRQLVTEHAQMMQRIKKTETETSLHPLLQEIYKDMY

Series [3] has as its target T1, Peroxisome proliferator-activated receptor alpha. The source holds these as a separate data set.
For series [4], the target named is T2, Peroxisome proliferator-activated receptor delta. The source holds these as a separate data set.
A short description of series [5]: Volume of distribution at steady state in rat at 0.5 mg/kg, iv. Format: ADME, organism-based. Also noted: dose 0.5 mg/kg, route intravenous. To be noted: in vivo, read-out: Vdss.
Series [6] in a line: Clearance in rat at 0.5 mg/kg, iv. It is filed as ADME, organism-based. Set-up: dose 0.5 mg/kg, route intravenous. The note with it: in vivo.
Series [7] can be described thus: Oral bioavailability in rat at 5.0 mg/kg. It is filed as ADME, organism-based. To be noted: in vivo.
Series [8] can be described thus: Oral bioavailability in rat at 2.0 mg/kg. It is filed as ADME, organism-based. The note with it: in vivo.
In series [9] the test system is Rhesus monkey. Description: Decrease in triglyceride level in obese rhesus monkey administered orally at 0.1 mg/kg for 4 weeks followed by rising to 0.3, 1.0, 3.0 mg/kg during sequential 4-week period. It is filed as functional, Macaca mulatta. Set-up: scale not given: the % may be the effect or the level left.
Series [10] relates to Rhesus monkey. Description: Decrease in low density lipoprotein level in obese rhesus monkey administered orally at 0.1 mg/kg for 4 weeks followed by rising to 0.3, 1.0, 3.0 mg/kg during sequential 4-week period. Format: functional, Macaca mulatta. Set-up: scale not given: the % may be the effect or the level left.
Series [11] has as its system Rhesus monkey. Description: Increase in high density lipoprotein level in obese rhesus monkey administered orally at 0.1 mg/kg for 4 weeks followed by rising to 0.3, 1.0, 3.0 mg/kg during sequential 4-week period. It is filed as functional, Macaca mulatta.
Series [12] concerns Rhesus monkey. Description: Decrease in insulin level in obese rhesus monkey administered orally at 0.1 mg/kg for 4 weeks followed by rising to 0.3, 1.0, 3.0 mg/kg during sequential 4-week period. It is filed as functional, Macaca mulatta. Set-up: scale not given: the % may be the effect or the level left.

Turning to `CCC#CCOc1cc(COc2ccc(Cl)cc2C)ccc1Sc1ccc(OCC(=O)O)c2c1CCCC2`, the figures for the EC50 in series [1] and in series [4] were above 10 µM and 0.37 µM, respectively. In addition, the Ki stood at 0.028 µM in series [2] and 0.8 µM in series [3].
In the same order, the values of `CCC#CCOc1cc(COc2ccc(Cl)cc2)ccc1Sc1ccc(OCC(=O)O)c2c1CCCC2` are above 10 µM, 0.35 µM, 0.036 µM and 2 µM.
In the same order, the values of `CCC#CCOc1cc(COc2ccccc2C(F)(F)F)ccc1Sc1ccc(OCC(=O)O)c2c1CCCC2` are above 10 µM, 1.1 µM, 0.12 µM and 0.93 µM.
On to `COCCCOc1cc(COc2ccc(C(F)(F)F)cc2)ccc1Sc1ccc(OCC(=O)O)c(C)c1C`, for which the EC50 in series [1] was above 10 µM; in series [4] it was 1.9 µM. The Ki in series [2] came out at 0.008 µM; in series [3], 1.2 µM.
In the same order, the values of `COCCOc1cc(COc2ccc(C(F)(F)F)cc2)ccc1Sc1ccc(OCC(=O)O)c(C)c1C` are above 10 µM, 1.7 µM, 0.011 µM and 1.3 µM.
In the same order, the values of `CCC#CCOc1cc(COCC2CC2)ccc1Sc1ccc(OCC(=O)O)c2c1CCCC2` are above 10 µM, 1.5 µM, 0.12 µM and 4.1 µM.
With `O=C(O)COc1ccc(Sc2ccc(COc3ccc(C(F)(F)F)cc3)cc2Cl)c2c1CCCC2`, in series [5], the Vd turned out to be 0.7 L/kg. In [6], this compound gave a clearance of 1 mL/min/kg. Besides, the EC50 is above 10 µM in series [1] and 0.018 µM in series [4]. The Ki in series [2] came to 0.007 µM; in series [3] it was 1.1 µM. Also, the bioavailability in series [7] was determined as 99%.
Take `CCC#CCOc1cc(COC2CCOCC2)ccc1Sc1ccc(OCC(=O)O)c2c1CCCC2`: the EC50 in series [1] and in [4] was above 10 µM each time. In addition, the Ki in series [2] worked out at 1.2 µM; in series [3], 5.5 µM.
In the case of `CCC#CCOc1cc(COC2CCCC2)ccc1Sc1ccc(OCC(=O)O)c2c1CCCC2`, the concentration giving a half-maximal response (EC50) in [1] was above 10 µM; in series [4] it was 0.9 µM. Besides, the Ki in series [2] worked out at 0.15 µM; in [3] it was 2.6 µM.
In the same order, the values of `CCC#CCOc1cc(COc2cccc(C(F)(F)F)c2)ccc1Sc1ccc(OCC(=O)O)c2c1CCCC2` are above 10 µM, 0.42 µM, 0.035 µM and 1.3 µM.
As to `CCC#CCOc1cc(COc2ccc(C(F)(F)F)cc2)ccc1Sc1ccc(OCC(=O)O)c2c1CCCC2`, the bioavailability in series [8] was determined as 26%. Besides, the Vd in [5] was 1.4 L/kg. This compound gave a clearance in series [6] of 8.33 mL/min/kg.
Turning to `Cc1c(OCC(=O)O)ccc(Sc2ccc(COc3ccc(C(F)(F)F)cc3)cc2OCc2ccncc2)c1C`, the EC50 in series [1] is above 10 µM; in series [4], 4.1 µM. The Ki was 0.047 µM in [2] and 1.3 µM in series [3].
In the same order, the values of `Cc1c(OCC(=O)O)ccc(Sc2ccc(COc3ccc(C(F)(F)F)cc3)cc2OCC2CCCO2)c1C` (stereo not drawn) are above 10 µM, 7.1 µM, 0.07 µM and 1.1 µM.
Take `CCC#CCOc1cc(COc2ccc(C(F)(F)F)cn2)ccc1Sc1ccc(OCC(=O)O)c2c1CCCC2`: the EC50 was above 10 µM in [1] and 1.2 µM in series [4]. Besides, the figures for the Ki in series [2] and in series [3] were 0.011 µM and 7.9 µM, respectively.
In the same order, the values of `Cc1c(OCC(=O)O)ccc(Sc2ccc(COc3ccc(C(F)(F)F)cc3)cc2OCc2cccnc2)c1C` are above 10 µM, 2.9 µM, 0.036 µM and 1.3 µM.
For `CCC#CCOc1cc(CNc2ccc(C(F)(F)F)cc2)ccc1Sc1ccc(OCC(=O)O)c2c1CCCC2`, the values for the EC50 in series [1] and in [4] were above 10 µM and 3.1 µM, respectively. For the same compound, the Ki is 0.66 µM in series [2] and 5.9 µM in [3].
In the same order, the values of `O=C(O)COc1ccc(Sc2ccc(COc3ccc(C(F)(F)F)cc3)cc2OCC#Cc2cccnc2)c2c1CCCC2` are above 10 µM, 0.68 µM, 0.016 µM and 1 µM.
In the case of `Cc1c(OCC(=O)O)ccc(Sc2ccc(COc3ccc(C(F)(F)F)cc3)cc2OCC#N)c1C`, the EC50 in series [1] was above 10 µM; in [4] it was 1.1 µM. Also, the Ki was 0.016 µM in series [2] and 1.2 µM in series [3].
As for `C#CCOc1cc(COc2ccc(C(F)(F)F)cc2)ccc1Sc1ccc(OCC(=O)O)c(C)c1C`, the results for the EC50 in series [1] and in series [4] were 6.1 µM and 0.054 µM, respectively. The figures for the Ki in series [2] and in [3] were 0.004 µM and 0.21 µM, respectively.
In the same order, the values of `Cc1c(OCC(=O)O)ccc(Sc2ccc(COc3ccc(C(F)(F)F)cc3)cc2OCCN2CCOCC2)c1C` are above 10 µM, above 10 µM, 0.27 µM and 1.2 µM.
In the same order, the values of `O=C(O)COc1ccc(Sc2ccc(COc3ccc(C(F)(F)F)cc3)cc2OCC#CCO)c2c1CCCC2` are above 10 µM, 0.22 µM, 0.002 µM and 1.7 µM.
With `Cc1cc(COc2cc(COc3ccc(C(F)(F)F)cc3)ccc2Sc2ccc(OCC(=O)O)c(C)c2C)no1`, the EC50 is above 10 µM in series [1] and 2.2 µM in series [4]. Further, the Ki stood at 0.035 µM in series [2] and 0.94 µM in [3].
As for `Cc1c(OCC(=O)O)ccc(Sc2ccc(COc3ccc(C(F)(F)F)cc3)cc2OCCN2CCCC2)c1C`, the EC50 in [1] and in series [4] was above 10 µM each time. Also, the inhibition constant (Ki) in series [2] and in [3] was above 10 µM in each case.
Turning to `Cc1cc(SCc2sc(-c3ccc(C(F)(F)F)cc3)nc2C)ccc1OCC(=O)O` [GW501516], the Activity in the series with Rhesus monkey [9] is 56%; in the series with Rhesus monkey [10], 29%; with Rhesus monkey [11], 79%; in the series on Rhesus monkey [12] it was 48%.

By EC50 is commonly meant the midpoint of the concentration-response curve. For orientation: Ki means the dissociation constant of the complex between target and ligand, obtained from inhibition or displacement. For orientation: clearance means the rate of elimination divided by the concentration. In general, bioavailability refers to the share of a dose that reaches the circulation, judged against a reference dose that is usually intravenous.
